Assay results: article PMC8998031, “A Boronated Derivative of Temozolomide Showing Enhanced Efficacy in Boron Neutron Capture Therapy of Glioblastoma” (Cells, 2022)

Assays:
[1] = system: HS683 cells; assay: CCK8 cell proliferation assay; format: cell-based, Human; settings: read-out: IC50 (cell viability, CCK8)
Protocol: Cell proliferation was measured with a CCK8 assay following the manufacturer’s protocol (Dojindo Molecular Technologies, Inc., Kumamoto, Japan). The IC50 was calculated using Prism software using the following algorithm: Cell Viability=100/1+10^(LogIC50−Concentration)×Hillslope

[2] = system: HS683 cells; assay: Clonogenic cell survival assay without BNCT; format: cell-based, Human
[3] = system: HS683 cells; assay: Boron uptake in HS683 cells (ICP-AES); format: cell-based, Human; settings: series of concentrations, 12 h
Protocol: (§1) Human GBM cells U87MG, U251, and HS683 and endothelial cell HUV-EC were obtained from the National Infrastructure of Cell Line Resource in Beijing, China. Cell lines were authenticated at the National Infrastructure of Cell Line Resource, Beijing, China. GBM cells were cultured in a DMEM medium containing 10% fetal bovine serum and 1% penicillin/streptomycin at 5% CO2 and 37 °C. HUV-EC cells were cultured in complete culture medium (Procell Life Science & Technology Co., Ltd., Wuhan, China). Cells were tested mycoplasma free using a Mycoplasma Test Kit (Cellorlab, China). All materials for cell culture were purchased from Gibco Invitrogen (Grand Island, NY, USA) unless otherwise noted.
(§2) TMZB (molecular weight, 412.21) and BPA (209.01; obtained from HEC Pharm, Dongguan, China) were made into 0.0–1.0 mg/g aqueous solutions. GBM cells and HUV-EC cells were treated with different concentrations of TMZB or BPA solutions. The drug-containing medium was removed 12 h later. The biodistribution of boron in TMZB- or BPA-treated mice was measured at the timepoint for neutron irradiation, i.e., 2 h after drug injection. Eight nude mice in each group were injected with 500 mg/kg of BPA, TMZ, or TMZB through the tail vein of the nude mice, in a 3,5-tetrazine-8-methoxy-4-phenylboronic acid-ethyl ester solution. […]

[4] = In vivo boron distribution in GBM mouse model (ICP-AES); design: species or system nude mice; settings: 50 mg 10B/kg
Protocol: (§3) Single-cell suspension with HS683 cells was prepared at 2 × 10^7 cells/mL. Nude mice were anesthetized with an intraperitoneal injection of tribromoethanol at a dose of 150 mg/kg and positioned in a stereotaxic instrument. After disinfection with 75% alcohol, the scalp was cut open with a scalpel, the bregma point was selected, and a hole was made in the mouse skull using a 1 mm cranial drill. Then, 5 μL of cell suspension was taken using a micro-injector, which was then fixed on the brain with a needle depth at 3.0 mm using a stereotaxic instrument. Three minutes later, the micro-injector was lifted by 0.5 mm to make rooms for the injection of cells at 1 μL/min. After removing the needle, the drill hole in the mice skull was then filled with bone wax, the skin incision was sutured, and the wound was disinfected with iodophor. The GBM model was established approximately 28 days after cell injection.
TMZB (molecular weight, 412.21) and BPA (209.01; obtained from HEC Pharm, Dongguan, China) were made into 0.0–1.0 mg/g aqueous solutions. GBM cells and HUV-EC cells were treated with different concentrations of TMZB or BPA solutions. The drug-containing medium was removed 12 h later. […] Eight nude mice in each group were injected with 500 mg/kg of BPA, TMZ, or TMZB through the tail vein of the nude mice, in a 3,5-tetrazine-8-methoxy-4-phenylboronic acid-ethyl ester solution. […] Cells or tissues were digested with concentrated nitric acid for the analysis of boron concentration via ICP-AES.

[5] = system: HS683 GBM mouse model; assay: In vivo BNCT test, PET/CT imaging with 18F-FDG; design: species or system nude mice
Protocol: as §3
PET/CT imaging with 1.5 uCi/g ^18F-FDG was performed for all the mice anesthetized with 2% isoflurane at 25 °C before BNCT. Mice were anesthetized with an intraperitoneal injection of tribromoethanol at a dose of 150 mg/kg. The mice were then injected i.v. with 50 mg ^10B/kg of BPA (5% fructose solution) or the TMZB solution at 50 mg ^10B/kg or TMZ at 600 mg/kg through the tail vein. Then, 90 min later, mice were fixed in the mold and anesthetized for BNCT. Mice heads were treated with 2 kw of neutron fluence for 2 h each time and 4 times for each mouse with 2 days interval in between, to achieve a total neutron fluence of 16.5 ± 0.3 × 10^11 n/cm^2. Boron compounds were injected prior to each of the radiation fractions. PET/CT imaging was performed again 31 days after BNCT. Three-dimensional reconstructions of the PET/CT images were performed using AMIDE (Stanford University, Stanford, CA, USA). ROI, SUV values, and tumor volume were then analyzed.

[6] = system: HS683 cells; assay: Clonogenic cell survival assay with BNCT (neutron irradiation); format: cell-based, Human; settings: total neutron fluence 2.4 ± 0.3 × 10^11 n/cm^2
Protocol: HS683 cells were prepared in a 200 μL centrifuge tube and treated with BPA or TMZB at gradient concentrations in 0.0–1.0 μg/mL for 30 min. Cells were irradiated with epithermal neutrons for approximately 30 min to achieve total neutron fluence at 2.4 ± 0.3 × 10^11 n/cm^2. After radiation, the drug-containing medium was removed, and cells were incubated in fresh medium for 12 h. A certain number of cells in a single-cell suspension were seeded into 6-well plates to grow colonies. After 2 weeks of incubation, colonies were fixed with 70% ethanol at room temperature for 10 min, stained with 0.1% crystal violet, and then dried overnight. Colonies with more than 50 cells were scored as clonogenic survivors under a bright field microscope.

[7] = system: U251 cells; assay: Boron uptake in U251 cells (ICP-AES); format: cell-based, Human; settings: exposure of 1.99 mM BPA, 12 h
Protocol: as §1, §2

Structure (SMILES): N[C@@H](Cc1ccc(B(O)O)cc1)C(=O)O [BPA, boronated phenylalanine]
- IC50 ([1]; without BNCT): 1110 µM
- IC50 [2]: 2310 µM

Structure (SMILES): N[C@@H](Cc1ccc([10B](O)O)cc1)C(=O)O [BPA, boronated phenylalanine]
- boron uptake (in words) [3]: low uptake
- tissue of main boron accumulation ([4]; 2 h after administration): mainly accumulates in the kidney
- boron concentration in mice tumors ([4]; 2 h after i.v. administration): 16.93 ± 9.75 μg B/g
- boron concentration in mice tumors ([4]; 6 h after i.v. administration): 5.07 ± 1.43 μg B/g
- tumor-to-blood ratio (T/B) of boron concentrations ([4]; GBM mouse model): 2.26 ± 1.56
- tumor-to-normal brain ratio (T/N) of boron concentrations ([4]; GBM mouse model): 2.61 ± 1.98
- SUV max after BNCT ([5]; 31 days after BNCT, 50 mg 10B/kg, 18F-FDG PET/CT): significantly reduced
- 18F-FDG uptake in tumors after BNCT ([5]; 31 days after BNCT, compared with TMZ-treated group): significantly lower than that in the TMZ-treated group
- tumor volume decrease (tumor shrinkage) after BNCT ([5]; 31 days after neutron irradiation, 50 mg 10B/kg i.v., total neutron fluence 16.5 ± 0.3 × 10^11 n/cm^2, PET/CT): 35.2%
- clonogenic cell death after BNCT ([6]; HS683, 0.239 mM BPA): 63.7% ± 6.3
- boron uptake [7]: 0.126 μg/10^6 cells

Structure (SMILES): Cn1nnc2c(C(N)=O)ncn2c1=O [TMZ, temozolomide]
- IC50 ([1]; Homo sapiens, Hs 683, without BNCT): 284 µM
- IC50 ([2]; Homo sapiens, Hs 683): 213 µM
- clonogenic cell death after BNCT ([6]; HS683, 0.258 mM TMZ): 47.9% ± 6.6
